Reference: publication PMC6981960 (2019)
Blank lines part the entries; values can stand above or below the molecule they belong to.

Key:
[1] = system: NP7 (DNA, aptamer) ATGCGGATCCCGCGCGGCCGGCCAGTGCGCGAAGCTTGCGC; test: AuNP colorimetric aggregation assay; conditions: NaCl added to aggregate AuNPs (10 μL, printed 850 nM), aptamer 4 μM
[2] = system: NP7 (DNA, aptamer) ATGCGGATCCCGCGCGGCCGGCCAGTGCGCGAAGCTTGCGC; test: circular dichroism; conditions: 137 mM NaCl, 2.7 mM KCl; PBS pH 7.4, 25 °C; aptamer 2 μM; 4-n-NP 0, 100, 1000 nM; qualitative change near 250 nm

Structure (SMILES): CCCCC(CC)COC(=O)c1ccccc1C(=O)OCC(CC)CCCC (centres unmarked)
binding ([1]; DEHP same amount as nonylphenol (200 nM stated)): no

Structure (SMILES): CC1(C)S[C@@H]2[C@H](NC(=O)Cc3ccccc3)C(=O)N2[C@H]1C(=O)O
binding ([1]; penicillin G same amount as nonylphenol (200 nM stated)): no

Continued, values first:

binding [2]: yes
Structure (SMILES): CCCCCCCCCc1ccc(O)cc1

binding ([1]; phenol same amount as nonylphenol (200 nM stated)): no
Structure (SMILES): Oc1ccccc1

binding ([1]; bisphenol A same amount as nonylphenol (200 nM stated)): weak
Structure (SMILES): CC(C)(c1ccc(O)cc1)c1ccc(O)cc1
